# Assay results reported in patent US20220332700A1, “NOVEL APOPTOSIS SIGNAL-REGULATING KINASE 1 INHIBITORS” (MANKIND PHARMA LTD, priority 2019, published 2022).
# Biological target: T1, recombinant ASK1 (Homo sapiens, UniProt Q99683)
# T1 construct: purchased Carna Biosciences
# Assay: ASK1 Biochemical Assay (HTRF KinEASE-STK S3)
# Details: ATP 100 μM; read-out: Biochemical Assay IC50
# Protocol: ASK1 biochemical assay was standardized using recombinant ASK1 (Carna Biosciences), substrate and detection reagents from Cisbio HRTF KinEASE-STK S3 kit. Enzyme concentration, ATP, biotinylated STK substrate and STK antibodies were titrated for enzyme assay. Assay was carried out in ASK1 kinase buffer, 10 mM MOPS pH-7, 10 mM Mg-acetate, 1 mM DTT, 0.025% NP40, 1.5% glycerol and 0.05% BSA. DMSO was used as vehicle control with a final concentration of 1%. A 5 ng of ASK1 enzyme was incubated with compound for 1 hour at 23° C. on a shaker at 100rpm. ATP and biotin substrate was added at a final concentration of 100 μM and 1 μM and incubated for 3 hours at 23° C. on a shaker at 100rpm. […] Delta F ratios were calculated from data obtained at excitation (337 nm) and emission wavelengths (665 nm and 620-10 nm). Substrate blank values was considered as negative control. Values from negative control was substrated from vehicle control and compound treated wells. Enzyme inhibition by compounds were calculated from vehicle controls, which represent uninterrupted enzyme's activity.
# T1 sequence (Q99683 654-971 limits assumed): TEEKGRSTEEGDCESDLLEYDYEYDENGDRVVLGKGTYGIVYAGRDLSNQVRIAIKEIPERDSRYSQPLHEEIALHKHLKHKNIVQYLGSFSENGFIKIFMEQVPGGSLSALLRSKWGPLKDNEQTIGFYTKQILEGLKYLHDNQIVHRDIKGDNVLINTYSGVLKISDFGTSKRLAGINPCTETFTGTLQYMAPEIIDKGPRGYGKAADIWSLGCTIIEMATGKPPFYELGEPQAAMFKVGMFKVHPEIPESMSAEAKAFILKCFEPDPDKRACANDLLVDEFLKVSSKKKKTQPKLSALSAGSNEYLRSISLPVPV
row,IC50 [nM],SMILES
1,1300,"CC(C)n1cnnc1-c1cccc(N2CCN(c3cc(-n4ccnc4)ncn3)C2=O)n1 [Example 1001, 1-(6-(1H-imidazol-1-yl)pyrimidin-4-yl)-3-(6-(4-isopropyl-4H-1,2,4-triazol-3-yl)pyridin-2-yl)imidazolidin-2-one]"
2,> 1000,"CC(C)n1cnnc1-c1cccc(N2CCN(c3cc(-n4ccnc4)ccn3)C2=O)n1 [Example 1003, 1-(4-(1H-imidazol-1-yl)pyridin-2-yl)-3-(6-(4-isopropyl-4H-1,2,4-triazol-3-yl)pyridin-2-yl)imidazolidin-2-one]"
3,> 1000,"CC(C)n1cnnc1-c1cccc(-n2ccn(-c3cc(-n4ccnc4)ncn3)c2=O)n1 [Example 1004, 1-(6-(1H-imidazol-1-yl)pyrimidin-4-yl)-3-(6-(4-isopropyl-4H-1,2,4-triazol-3-yl)pyridin-2-yl)-1H-imidazol-2(3H)-one]"
4,< 1000,"CC(C)n1cnnc1-c1cccc(N2CCN(c3cccc(-n4cnc(C5CC5)c4)c3)C2=O)n1 [Example 1005, 1-(3-(4-cyclopropyl-1H-imidazol-1-yl)phenyl)-3-(6-(4-isopropyl-4H-1,2,4-triazol-3-yl)pyridin-2-yl)imidazolidin-2-one]"
5,< 1000,"CC(C)n1cnnc1-c1cccc(-n2ccn(-c3cccc(-n4ccnc4)c3)c2=O)n1 [Example 1006, 1-(3-(1H-imidazol-1-yl)phenyl)-3-(6-(4-isopropyl-4H-1,2,4-triazol-3-yl)pyridin-2-yl)-1H-imidazol-2(3H)-one]"
6,> 1000,"CC(C)n1cnnc1-c1cccc(N2CCN(c3cccc(-n4ccnc4)c3F)C2=O)n1 [Example 1008, 1-(2-fluoro-3-(1H-imidazol-1-yl)phenyl)-3-(6-(4-isopropyl-4H-1,2,4-triazol-3-yl)pyridin-2-yl)imidazolidin-2-one]"
7,95,"CC(C)n1cnnc1-c1cccc(N2CCN(c3cccc(S(C)(=O)=O)c3)C2=O)n1 [Example 1009, 1-(6-(4-isopropyl-4H-1,2,4-triazol-3-yl)pyridin-2-yl)-3-(3-(methylsulfonyl)phenyl)imidazolidin-2-one]"
8,< 1000,"CC(C)n1cnnc1-c1cccc(N2CCN(c3cccc(-c4cnn(C)c4)c3)C2=O)n1 [Example 1012, 1-(6-(4-isopropyl-4H-1,2,4-triazol-3-yl)pyridin-2-yl)-3-(3-(1-methyl-1H-pyrazol-4-yl)phenyl)imidazolidin-2-one]"
9,> 1000,"CC(C)n1cnnc1-c1cccc(N2CCN(c3cccc(-c4ccc(C(N)=O)cc4)c3)C2=O)n1 [Example 1015, 3′-(3-(6-(4-isopropyl-4H-1,2,4-triazol-3-yl)pyridin-2-yl)-2-oxoimidazolidin-1-yl)-[1,1′-biphenyl]-4-carboxamide]"
10,> 1000,"CC(C)n1cnnc1-c1cccc(N2CCN(c3cccc(-c4ccc(C#N)cc4)c3)C2=O)n1 [Example 1016, 3′-(3-(6-(4-isopropyl-4H-1,2,4-triazol-3-yl)pyridin-2-yl)-2-oxoimidazolidin-1-yl)-[1,1′-biphenyl]-4-carbonitrile]"
11,> 1000,"CC(C)n1cnnc1-c1cccc(N2CCN(c3cccc(-c4ccc(C(F)(F)F)cc4)c3)C2=O)n1 [Example 1017, 1-(6-(4-isopropyl-4H-1,2,4-triazol-3-yl)pyridin-2-yl)-3-(4′-(trifluoromethyl)-[1,1′-biphenyl]-3-yl)imidazolidin-2-one]"
12,> 100,"COc1cc(C)c(-c2ccc(S(C)(=O)=O)cc2)cc1N1CCN(c2cccc(-c3nncn3C(C)C)n2)C1=O [Example 1026, 1-(6-(4-isopropyl-4H-1,2,4-triazol-3-yl)pyridin-2-yl)-3-(4-methoxy-6-methyl-4′-(methylsulfonyl)-[1,1′-biphenyl]-3-yl)imidazolidin-2-one]"
13,> 1000,"CC(C)n1cnnc1-c1cccc(N2CCN(S(C)(=O)=O)C2=O)n1 [Example 1028, 1-(6-(4-isopropyl-4H-1,2,4-triazol-3-yl)pyridin-2-yl)-3-(methylsulfonyl)imidazolidin-2-one]"
